Results as given in publication PMC6661809, “Lead optimization for promising monoamine oxidase inhibitor from eugenol for the treatment of neurological disorder: synthesis and in silico based study” (BMC Chemistry, 2019).

Key:
hMAO-A = target: T1, hMAO-A (Homo sapiens, UniProt P21397); assay: Recombinant human MAO-A inhibition screening (Amplex Red, p-tyramine); assay type: biochemical; details: for Selectivity index: IC50 (MAO-A)/IC50 (MAO-B); for IC50: recombinant hMAO-A, p-tyramine substrate, mean SEM
T1 construct: purchased Sigma-Aldrich; host or cells: insect cells (BTI-TN-5B14) infected with recombinant baculovirus
T1 sequence (P21397 1-527): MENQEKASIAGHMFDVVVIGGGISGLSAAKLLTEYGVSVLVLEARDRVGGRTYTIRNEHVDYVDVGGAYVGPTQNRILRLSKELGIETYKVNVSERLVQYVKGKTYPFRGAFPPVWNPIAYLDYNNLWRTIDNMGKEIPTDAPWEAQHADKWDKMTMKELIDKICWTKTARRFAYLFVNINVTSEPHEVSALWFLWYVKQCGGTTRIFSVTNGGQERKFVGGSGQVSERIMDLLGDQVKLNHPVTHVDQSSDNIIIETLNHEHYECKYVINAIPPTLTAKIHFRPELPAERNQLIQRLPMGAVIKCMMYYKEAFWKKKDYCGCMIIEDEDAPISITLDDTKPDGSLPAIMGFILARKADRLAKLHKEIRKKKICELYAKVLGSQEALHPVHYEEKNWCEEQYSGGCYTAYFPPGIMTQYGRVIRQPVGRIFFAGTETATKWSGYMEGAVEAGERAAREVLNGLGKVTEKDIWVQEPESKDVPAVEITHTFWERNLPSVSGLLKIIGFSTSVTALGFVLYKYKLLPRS
Source text: (§1) To evaluate IC50 values for the inhibition of human MAO-A and MAO-B by newly synthesized compounds the commercially available recombinant human enzymes expressed in insect cells were used (Sigma-Aldrich). The MAO inhibition assay was based on the method described by Anderson et al., 1993 and Chimenti et al. with some modifications. The Amplex Red MAO Kit tyramine (Sigma-Aldrich) affords a suitable fluorimetric method to evaluate MAO enzyme action of synthetic and natural compounds. In the assay, MAO reacts with p-tyramine, a common substrate for both MAO isoforms, ensuing in the production of H2O2, which is identified by a fluorimetric method (λex = 530/λem = 585 nm). Each test well contained 0.1 mL of sodium phosphate buffer (0.05 M, pH 7.4), a range of concentrations of the eugenol based derivatives or reference compounds along with recombinant hMAO-A or hMAO-B in appropriate quantity. After the preparation of this mixture the wells were subjected to incubation for 15 min at 37 °C, placed in the dark fluorimeter chamber. Once this incubation period over, the process was rendered by mixing 200 µM Amplex Red reagent (Sigma-Aldrich), 1 U/mL horseradish peroxidase (Sigma-Aldrich) and p-tyramine (Sigma-Aldrich). Subsequently, the formation of hydrogen peroxide exerted by MAO isoforms was quantified by using Amplex-Red reagent, a non-fluorescent probe that reacts with H2O2 in the existence of horse radish peroxidase to generate the fluorescent component resorufin. Moreover, the control analysis was calculated in the absence of compound and reference inhibitors. The probability of compounds to change the fluorescence produced in the reaction mix due to non-enzymatic inhibition was assessed by mixing titled compounds to solutions of single Amplex Red reagent in a sodium phosphate buffer. Data were processed in Microsoft Excel, to calculate IC50 values.

hMAO-B = target: T2, hMAO-B (Homo sapiens, UniProt P27338); assay: Recombinant human MAO-B inhibition screening (Amplex Red, p-tyramine); assay type: biochemical; details: p-tyramine substrate, mean SEM
T2 construct: purchased Sigma-Aldrich; host or cells: insect cells (BTI-TN-5B14) infected with recombinant baculovirus
T2 sequence (P27338 1-520): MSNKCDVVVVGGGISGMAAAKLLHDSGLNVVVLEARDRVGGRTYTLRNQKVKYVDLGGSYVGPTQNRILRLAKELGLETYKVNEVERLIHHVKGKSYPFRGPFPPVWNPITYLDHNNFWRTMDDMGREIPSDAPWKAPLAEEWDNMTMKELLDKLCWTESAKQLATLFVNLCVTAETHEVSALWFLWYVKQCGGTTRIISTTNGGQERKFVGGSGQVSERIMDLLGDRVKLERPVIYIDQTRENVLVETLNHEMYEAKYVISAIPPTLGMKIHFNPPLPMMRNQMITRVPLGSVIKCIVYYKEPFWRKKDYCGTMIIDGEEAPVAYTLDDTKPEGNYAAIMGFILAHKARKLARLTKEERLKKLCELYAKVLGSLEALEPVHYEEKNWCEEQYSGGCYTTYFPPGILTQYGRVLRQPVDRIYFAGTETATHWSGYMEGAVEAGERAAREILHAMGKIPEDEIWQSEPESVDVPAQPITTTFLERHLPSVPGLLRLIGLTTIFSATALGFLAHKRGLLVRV
Source text: as §1

DPPH scavenging activity = details: Table 6, mean ± SEM, n = 3
Protocol: Solutions of synthesized compounds were set in ethanol/water (1:1) having 10 mM to 100 mM at a period of 10 mM. The 0.01% DPPH· stock solution was prepared in ethanol/water (1:1). Samples were prepared as 5 mL DPPH· solution was mixed with 5 mL L-ascorbic acid solution then shaken vigorously and kept in the dark. Corresponding blank sample were prepared and L-ascorbic acid was used as reference standard. […] The actual decrease in absorption induced by the test was compared with the positive controls. The IC50 values were calculated use the dose inhibition curve in linear range by plotting the extract concentration versus the corresponding scavenging effect through following equation [(ADR − APR)/AO] × 100. Where ADR is the absorbance prior to reaction and APR is the absorbance after reaction with DPPH·.

[1] = Hydrogen peroxide scavenging (H2O2) assay; details: Table 7, mean ± SEM, n = 3
Protocol: Hydrogen peroxide generally turns into water and oxygen and produces highly toxic hydroxyl radical that renders the damage to DNA and peroxidation of lipid. H2O2 scavenging ability of eugenol based derivatives was evaluated by method described by Nakano and colleagues with some alteration. The hydrogen peroxide solution (40 mM) was prepared in phosphate buffer (40 mM pH 7.4) and addition of several ranges of synthesized derivatives (05–80 μg/mL) was done into H2O2 solution (2 mL). The determination of H2O2 concentration was done by UV/Vis Epoch ELISA reader at 230 nm upon incubation of 10 min. Solution of phosphate buffer without H2O2 was noted as blank reading. The hydrogen peroxide percentage inhibition was estimated through the formula [(AH − AD)/AO] × 100, where AH is the absorbance of the control and AD is the absorbance of compounds/reference taken as 05–80 μg/mL L-ascorbic acid.

[2] = Nitric oxide scavenging activity; details: Table 8, mean ± SEM, n = 3
Source text: The generation of nitric oxide (NO·) on biological tissues is mediated by particular nitric oxide synthases enzyme that control the catabolism of the arginine to citrulline via creation of NO through a five electron oxidative reaction. At the physiological pH (7.2) in aqueous solution sodium nitroprusside decompose to produce NO·. Finally, NO· reacts with oxygen at underaerobic conditions and produces stable products (nitrate and nitrite), this amount can be determined by means of Griess reagent. The procedure for the nitric oxide scavenging activity was adopted from reports of Alam et al..

[3] = Ferric reducing antioxidant power (FRAP) assay; details: Table 9, mean ± SEM, n = 3;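 further: Ferrous-TPTZ reduction read as absorbance at 593 nm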
Protocol: The capacity of antioxidants to decrease ferric iron is measured by this method. The reaction of […] (TPTZ) and complex ferric iron yields ferrous form at low pH. […] This method was adopted from the reports of Benzie et al..

Compound	Selectivity index (hMAO-A)	IC50 (hMAO-A) [µM]	IC50 (hMAO-B) [µM]	DPPH scavenging IC50 (DPPH scavenging activity) [µg/mL]	H2O2 scavenging IC50 [1] [µg/mL]	Nitric oxide scavenging IC50 [2] [µg/mL]	FRAP IC50 [3] [µg/mL]	melting point [°C]
C=CCc1ccc(OCC(=O)NNC(=O)c2ccccn2)c(OC)c1 [Compound 11, N′-(2-(4-allyl-2-methoxyphenoxy)acetyl)picolinohydrazide]	0.67	18.06 ± 0.044	26.8 ± 0.077	11.21 ± 0.044	10.33 ± 0.022	10.71 ± 0.743	9.126 ± 0.013	204 to 205
C=CCc1ccc(OC(=O)c2ccccc2S)c(OC)c1 [Compound 13d, 4-allyl-2-methoxyphenyl 2-mercaptobenzoate]	1.49	20.89 ± 0.023	13.95 ± 0.005	14.88 ± 0.018	14.4 ± 0.143	11.23 ± 0.032	12.45 ± 0.017	182 to 184
C=CCc1ccc(OC(=O)c2ccc(O)c(OC)c2)c(OC)c1 [Compound 13a, 4-allyl-2-methoxyphenyl 4-hydroxy-3-methoxybenzoate]	5.14	38.53 ± 0.018	7.494 ± 0.014	20.66 ± 0.032	26.6 ± 0.544	20.23 ± 0.073	18.14 ± 0.001	199 to 200
O=C1O[C@H]([C@@H](O)CO)C(O)=C1O [L-Ascorbic acid, reference compound]				8.58 ± 0.009	8.121 ± 0.082	7.523 ± 0.005	8.112 ± 0.091	
C=CCc1ccc(OC(=O)c2ccccc2O)c(OC)c1 [Compound 13c, 4-allyl-2-methoxyphenyl 2-hydroxybenzoate]	1.76	22.38 ± 0.067	12.66 ± 0.021	16.04 ± 0.026	15.7 ± 0.784	14.63 ± 0.412	14.63 ± 0.007	157 to 159
C=CCc1ccc(OC(=O)c2ccc(O)cc2)c(OC)c1 [Compound 13b, 4-allyl-2-methoxyphenyl 4-hydroxybenzoate]	5.72	52.55 ± 0.038	9.183 ± 0.034	12.47 ± 0.014	12.5 ± 0.862	11.74 ± 0.523	10.77 ± 0.026	178 to 179

Further compounds by falling IC50 (hMAO-A), results first:

Selectivity index (hMAO-A)	IC50 (hMAO-A) [µM]	IC50 (hMAO-B) [µM]	DPPH scavenging IC50 (DPPH scavenging activity) [µg/mL]	H2O2 scavenging IC50 [1] [µg/mL]	Nitric oxide scavenging IC50 [2] [µg/mL]	FRAP IC50 [3] [µg/mL]	melting point [°C]	Compound
0.59	16.62 ± 0.004	27.85 ± 0.054	9.293 ± 0.028	9.393 ± 0.017	8.095 ± 0.018	9.912 ± 0.005	210 to 211	C=CCc1ccc(OCC(=O)NNC(=O)c2ccccc2S)c(OC)c1 [Compound 9b, N′-(2-(4-allyl-2-methoxyphenoxy)acetyl)-2-mercaptobenzohydrazide]
0.53	15.85 ± 0.039	29.37 ± 0.048	9.152 ± 0.063	9.156 ± 0.002	7.156 ± 0.002	5.934 ± 0.053		1-(2-(4-allylphenoxy)acetyl)-4-(4-hydroxybenzoyl)thiosemicarbazide [Compound 5a]
0.40	13.92 ± 0.051	34.2 ± 0.037	31.30 ± 0.014	30.4 ± 0.064	25.61 ± 0.076	15.91 ± 0.003		C=CCc1ccc(OC(=O)/C=C\c2ccccc2)c(OC)c1 [Compound 17, (Z)-4-allyl-2-methoxyphenyl 3-phenylacrylate]
0.22	10.84 ± 0.025	47.7 ± 0.073	9.514 ± 0.017	9.547 ± 0.051	9.007 ± 0.014	7.234 ± 0.001	230 to 231	C=CCc1ccc(OCC(=O)NNC(=O)c2ccccc2O)c(OC)c1 [Compound 9a, N′-(2-(4-allyl-2-methoxyphenoxy)acetyl)-2-hydroxybenzohydrazide]
0.14	7.348 ± 0.027	49.15 ± 0.011	27.70 ± 0.023	20.6 ± 0.856	18.63 ± 0.654	16.88 ± 0.099	120 to 122	C=CCc1ccc(OC(=O)/C=C\c2ccc(O)c(OC)c2)c(OC)c1 [Compound 16, (Z)-4-allyl-2-methoxyphenyl 3-(4-hydroxy-3-methoxyphenyl)acrylate]
0.19	5.989 ± 0.007	31.19 ± 0.016	8.304 ± 0.073	8.904 ± 0.034	6.456 ± 0.023	5.112 ± 0.009		C=CCc1ccc(OCC(=O)NNC(=S)NC(=O)c2cc(O)c(O)c(O)c2)c(OC)c1 [Compound 5b]
